# Laboratory results reported in US20220265606A1, “ANTICANCER AGENTS” (The Texas A&M University System, priority 2019, published 2022).
# Where two headings read alike, the source gives them in different places.
# Assays:
# [1] = target: NR4A2 ligand binding domain (LBD) (Homo sapiens, UniProt P43354); assay: Ligand-induced quenching of NR4A2 LBD tryptophan fluorescence
# Procedure: Quenching of NR4A1 Tryptophan Fluorescence by Direct Ligand Binding. Tryptophan fluorescence spectra were obtained as described herein. Briefly, histidine-tagged ligand binding domain (LBD) of NR4A1 at a final concentration of 0.5 μmol/L in 1.0 mL of phosphate-buffered saline (PBS, pH 7.4) was used for fluorescence measurements. The protein was incubated for 3 min at 25 °C in a temperature-controlled (Quantum Northwest TC125) fluorescence spectrophotometer (Varian Cary Eclipse). […] Ligand only fluorescence intensity at each ligand concentration was used to correct the NR4A1 tryptophan fluorescence intensity as described in the above references.
# Accordingly, ligand binding assay for NR4A1 and NR4A2 which measures ligand-induced quenching of tryptophan fluorescence by the ligand were developed to further characterize activity with respect to NR4A1 and NR4A2. A tryptophane residue is located in the ligand binding domain (LBD) of both receptors and the LBD of the receptor is used in the binding assay.
# [2] = system: vasoactive intestinal peptide (VIP) gene expression in Panc28 cells; assay: VIP gene expression by quantitative PCR in Panc28 cells
# Procedure: (§2) The effects of bis-indole and quinoline derivatives on activation of the NR4A2 regulated genes vasoactive intestinal peptide (VIP) was investigated. […] Relative expression levels of VIP were determined by quantitative PCR analysis. Results are expressed as means±SD for at least six separate determinations for each treatment.
# [3] = system: vasoactive intestinal peptide (VIP) gene expression in Panc1 cells; assay: VIP gene expression by quantitative PCR in Panc1 cells
# Procedure: as §2
# NR4A2 [4] = conditions: Panc1 / pancreatic cancer cells
# Procedure: (§3) Transactivation Assay. Cells (8×10^4) per well were plated on 12-well plates in DMEM/F-12 supplemented with 2.5% charcoal-stripped FBS and 0.22% sodium bicarbonate. After 24 h growth, various amounts of DNA [i.e., UASx5-Luc (400 ng), GAL4-Nurr1 (40 ng) and β-gal (40 ng)] were cotransfected into each well by Lipofectamine 2000 reagent (Invitrogen, Carlsbad, Calif.) according to the manufacturer's protocol. After 5-6 hr of transfection, cells were treated with plating media (as above) containing either solvent (DMSO) or the indicated concentration of compounds for 24 hr. Cells were then lysed using a freeze-thaw protocol and 30 μL of cell extract was used for luciferase and β-gal assays. LumiCount (Packard, Meriden, Conn.) was used to quantify luciferase and β-gal activities. Luciferase activity values were normalized against corresponding (3-gal activity values as well as protein concentrations determined by Lowry's Method.
# NR4A1 LBD = target: T1, NR4A1 LBD (Homo sapiens, UniProt P22736); assay: NR4A1/bisANS fluorescence binding
# T1 construct: histidine tag
# T1 sequence (P22736 360-595 limits assumed, species assumed): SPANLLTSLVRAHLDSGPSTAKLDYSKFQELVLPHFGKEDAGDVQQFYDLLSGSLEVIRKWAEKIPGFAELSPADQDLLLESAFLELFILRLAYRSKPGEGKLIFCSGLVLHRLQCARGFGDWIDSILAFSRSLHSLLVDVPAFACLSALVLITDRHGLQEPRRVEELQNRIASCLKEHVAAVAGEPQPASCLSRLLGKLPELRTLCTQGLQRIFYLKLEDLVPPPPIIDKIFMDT
# Procedure: The binding affinity (Kd) and binding stoichiometry (Bmax) of NR4A1/bisANS were determined essentially as described in FEBS Journal, 2014, 281, 2266-2283. For NR4A1/bisANS the binding affinity (Kd) was determined to be […] and the binding stoichiometry (Bmax) was determined to be 0.80 mol bisANS/mol NR4A1. The ability of ligand to displace bisANS was analyzed essentially as described in FEBS Journal, 2014, 281, 2266-2283. Briefly, histidine-tagged NR4A1 LBD (final concentration=0.05 μmon PBS, pH 7.4) was incubated at 25° C. for 3 min in the presence of 5.0 μmol bisANS/L. The bisANS fluorescence spectrum was obtained utilizing a Varian Cary Eclipse fluorescence spectrophotometer with an excitation wavelength of 365 nm (excitation slit width=5 nm) and an emission wavelength range of 400-600 nm (emission slit width=5 nm). Ligand titration was accomplished as described above for direct ligand binding using a stock ligand concentration of 10 mmol ligand/L ethanol. Addition of ethanol only had no effect on NR4A1/bisANS fluorescence (data not shown). […] Ligand/bisANS fluorescence intensity at each ligand concentration was used to correct the NR4A1/bisANS/ligand fluorescence intensity as described in the above reference.
# [5] = system: vasoactive intestinal peptide (VIP) in pancreatic cancer cells; conditions: initial (background) work; cited from earlier work
# glioblastoma cells [6] = assay: Measurement of apoptosis (Annexin V staining); format: cell-based, human; conditions: 24 hr
# Procedure: Measurement of Apoptosis (Annexin V Staining). Cancer cells were seeded at density of 1.5×10^5 per ml in 6 well plates and treated with either vehicle (DMSO) or compounds for 24 hr.
# (§1) Glioblastoma cells were treated with different concentrations of 4-Cl (FIG. 6A), 3-CF3-4-Cl (FIG. 6B), and 2-OH-4-Br (FIG. 6C) and effects on induction of Annexin V were determined as outlined herein. Glioblastoma cells were treated with different concentrations of NR4A2 antagonists and whole cell lysates were analyzed for markers of apoptosis by western blots.
# glioblastoma cells [7] = assay: Western blot of apoptosis markers in whole cell lysates; format: cell-based, human
# Procedure: Western Blot Analysis. 17008, 15037, 14104s, 14015s, 15049, U87-MG, A172, T98G, and CCF-STTG1 cells were seeded at density of 1.5×10^5 per ml in 6 well plates and treated with various concentration of compounds and whole cell proteins were extracted using RIPA lysis buffer containing 10 mM Tris-HCl (pH 7.4), 150 mM NaCl, 1 mM ethylenediaminetetraacetic acid (EDTA), 1% Triton X-100 (w/v), 0.5% sodium deoxycholate and 0.1% sodium dodecylsulphate (SDS) with protease and phosphatase inhibitor cocktail. Protein concentrations were measured using Lowry's method and equal amounts of protein were separated in 10% and 15% SDS-PAGE and transferred to a Polyvinylidene difluoride (PVDF) membrane. PVDF membranes were incubated overnight at 4° C. with primary antibodies in 5% skimmed milk and incubated for 2-3 hr with secondary antibodies conjugated with horseradish peroxidase (HRP). Membranes were then exposed to HRP-substrate and immune reacted proteins were detected with chemiluminescence reagent.
# as §1
# 15037 cells = assay: 3D tumor spheroid invasion assay; conditions: 10 μM, vs DMSO
# Procedure: Three-Dimensional (3D) Tumor Spheroid Invasion Assay. The cells were suspended in the complete medium (2×10^4 cells/ml). […] The plate was transferred to the incubator for 1 hr and 100 μl of the complete media containing 3 times the desired final concentration of compounds was supplemented and then incubated for 3-5 days followed by fixation in 4% formaldehyde. Spheroid invasion was determined by measuring the cross-sectional areas of the spheroid center and the rim of invaded cells using ImageJ.
# [8] = previous studies, cited from earlier work
# NR4A2 [9] = system: NR4A2
# Procedure: as §3
# [10] = system: U87-MG cells as xenografts; assay: Xenograft study; format: in vivo, athymic nu/nu mice
# Procedure: Xenograft Study. Female athymic nu/nu mice (4-6 weeks old) were purchased from Harlan Laboratories (Houston, TX). U87-MG cells (1×10^6) were harvested in 100 μl of DMEM and suspended in ice-cold Matrigel (1:1 ratio) and s.c. injected to either side of the flank area of the mice. After one week of tumor cell inoculation, mice were divided into two groups of 5 animals each. The first group received 100 μL of vehicle (corn oil), and second group of animals received an injection of 30 mg/kg/day of C-DIM 12 in 100 μl volume of corn oil by i.p. for three weeks. All mice were weighed once a week over the course of treatment to monitor changes in body weight. Tumor volumes could not be determined over the period of treatment because xenografted tumors were relatively deep. After three weeks of treatment, mice were sacrificed and tumor weights were determined.
# dopaminergic neurons = conditions: in vivo, previous studies; cited from earlier work
# NR4A2 ligand binding domain (LBD), sequence (P43354 360-595 limits assumed, species assumed): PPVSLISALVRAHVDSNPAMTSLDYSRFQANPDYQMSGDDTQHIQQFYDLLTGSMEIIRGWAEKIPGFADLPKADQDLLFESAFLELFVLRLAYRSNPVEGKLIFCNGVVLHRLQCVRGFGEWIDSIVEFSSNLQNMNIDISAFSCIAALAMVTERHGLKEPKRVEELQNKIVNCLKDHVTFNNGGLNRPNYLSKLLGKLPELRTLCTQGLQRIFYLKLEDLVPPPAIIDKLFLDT
smiles,measurement,setting,value
Clc1ccccc1C(c1c[nH]c2ccccc12)c1c[nH]c2ccccc12 [CDIM-2-Cl],"Binding to NR4A2 (quenching of LBD-Trp), in words",[1],gave similar results
Cn1cc(C(c2ccc(O)cc2)c2cn(C)c3ccccc23)c2ccccc21 [N—Me-4-OH],"Induction of VIP, in words",[2],more potent inducer of VIP in Panc1 and Panc28 cells than either CQ or AQ
same,"Induction of VIP, in words",[3],more potent inducer of VIP in Panc1 and Panc28 cells than either CQ or AQ
same,NR4A2-dependent transactivation,NR4A2 [4],induced NR4A2-dependent transactivation
O=S(=O)(O)c1cccc2c(-c3ccc(Nc4ccccc4)c4c(S(=O)(=O)O)cccc34)ccc(Nc3ccccc3)c12 [bisANS],NR4A1/bisANS binding stoichiometry (Bmax),NR4A1 LBD,0.80 mol bisANS/mol NR4A1
"Brc1ccc(C(c2c[nH]c3ccccc23)c2c[nH]c3ccccc23)cc1 [CDIM-4-Br, 1-bis(3′indolyl)-1-(p-bromophenyl)methane]",Induction of VIP in pancreatic cancer cells,[5],induced vasoactive intestinal peptide (VIP)
FC(F)(F)c1cc(C(c2c[nH]c3ccccc23)c2c[nH]c3ccccc23)ccc1Cl [Ligand 3-CF3-4-Cl],Annexin V staining,glioblastoma cells [6],induced Annexin V staining
same,"Cleavage of caspase 7, 8 and PARP",glioblastoma cells [7],"cleaved caspase 7, 8 and PARP cleavage"
same,NR4A2-dependent transactivation,NR4A2 [4],induced NR4A2-dependent transactivation
Clc1ccc(C(c2c[nH]c3ccccc23)c2c[nH]c3ccccc23)cc1 [CDIM-4-Cl],Tumor spheroid invasion,15037 cells,inhibited tumor spheroid invasion
same,Crossing of the blood-brain barrier,[8],cross the blood-brain barrier
same,Crossing of the blood-brain barrier,[8]; listed as DIM-C-pPhCl,crosses the blood-brain barrier and accumulates in the brain
same,Annexin V staining,glioblastoma cells [6],induced Annexin V staining
same,NR4A2-dependent transactivation in GBM cells (FIGS. 4A-4C),NR4A2 [9],inhibited NR4A2-dependent transactivation
same,Tumor weight,"[10]; 30 mg/kg/day i.p. for three weeks, athymic nude mice bearing U87-MG xenograft",significantly decreased tumor weight
same,Cleaved caspase 8 in tumors,"[10]; 30 mg/kg/day, western blot of tumor lysates vs vehicle controls",significant upregulation of cleaved caspase 8
same,"Binding to NR4A2 (quenching of LBD-Trp), in words",[1],do not quench the LBD-Trp
same,"Cleavage of caspase 7, 8 and PARP",glioblastoma cells [7],"cleaved caspase 7, 8 and PARP cleavage"
same,MPTP-induced loss of dopaminergic neurons,dopaminergic neurons,inhibited
same,NR4A2-dependent transactivation,NR4A2 [4],activated NR4A2-dependent transactivation
same,Induction of VIP in pancreatic cancer cells,[5],induced vasoactive intestinal peptide (VIP)
Oc1cc(Br)ccc1C(c1c[nH]c2ccccc12)c1c[nH]c2ccccc12 [Ligand 2-OH-4-Br],Annexin V staining,glioblastoma cells [6],induced Annexin V staining
same,Induction of VIP expression,"[3]; bis-indole analogs 5, 10 and 15 μM, CQ 100, 150 and 200 μM, AQ 50, 75 and 100 μM",≤ 330 fold
same,"Cleavage of caspase 7, 8 and PARP",glioblastoma cells [7],"cleaved caspase 7, 8 and PARP cleavage"
same,NR4A2-dependent transactivation,NR4A2 [4],induced NR4A2-dependent transactivation
Clc1cccc(C(c2c[nH]c3ccccc23)c2c[nH]c3ccccc23)c1 [CDIM-3-Cl],"Binding to NR4A2 (quenching of LBD-Trp), in words",[1],gave similar results
